{"source": "patent USRE37410E", "about": "“Controlled local delivery of chemotherapeutic agents for treating solid tumors” (priority 1999, dated 2001)", "key": {"[1]": {"conditions": "in vivo; cited from earlier work"}, "[2]": {"test_system": "glioma lines", "conditions": "in vitro; cited from earlier work"}, "[3]": {"conditions": "cited from earlier work"}, "[4]": {"test_system": "9L", "assay": "Intracranial local drug delivery by polymer implant in rat glioma model, median survival (Table 1 summary)", "conditions": "in vivo"}, "[5]": {"assay": "Intracranial local drug delivery by polymer implant in rat glioma model, P98 cells injected (Table 1 summary)", "format": "in vivo", "conditions": "p(FAD:SA) 5% load", "source_text": "Table 1 is a summary of studies on intracranial local drug delivery in rat glioma models, as described in the following examples."}, "[6]": {"test_system": "rat Walker 256 carcinosarcoma", "conditions": "in vitro; cited from earlier work"}, "[7]": {"test_system": "topoisomerase I", "conditions": "cited from earlier work"}, "[8]": {"test_system": "melanoma and advanced gastrointestinal carcinoma", "conditions": "human, in vivo; cited from earlier work"}, "[9]": {"test_system": "L1210", "conditions": "in vitro; cited from earlier work"}, "[10]": {"test_system": "U87", "assay": "Clonogenic assay, camptothecin", "format": "cell-based, human", "protocol": "(§1) Tumor cell lines. […] The F98 glioma cells were provided by Dr. Joseph Goodman, Department of Neurosurgery, Ohio State University, Columbus, Ohio. The human glioma cell lines U87 and U373 were provided by Dr. O. Michael Colvin, Johns Hopkins University School of Medicine, Baltimore, Md. JH1 is a cell line established from a biopsy specimen from a patient with a pathologically confirmed glioblastoma multiform.\n(§2) Clonogenic assay. The sensitivity of each glioma cell line was tested in a clonogenic assay. At confluence, the cells were trypsinized and plated at 400 cells per 60 mm well. After 24 hours, fresh medium containing camptothecin at various concentrations was added. For brief exposure experiments, the camptothecin was removed and replaced with fresh medium after 1 hour; for continuous exposure, medium was left in place for 7 days. At 7 days, all plates were fixed and stained with coomassie brilliant blue (Bio Rad, Richmond, Calif.). Colonies containing more than 50 cells were identified and counted. Treatments were performed in triplicate. Survival was calculated as the number of colonies formed by the treated cells relative to the number of colonies formed by the untreated cells."}, "[11]": {"test_system": "U373", "assay": "Clonogenic assay, camptothecin", "format": "cell-based", "conditions": "Homo sapiens, U373 MG", "protocol": "as §1, §2"}, "[12]": {"test_system": "F98", "assay": "Clonogenic assay, camptothecin", "format": "cell-based", "conditions": "Rattus norvegicus", "protocol": "as §1, §2"}, "[13]": {"test_system": "9L", "assay": "Clonogenic assay, camptothecin", "format": "cell-based", "conditions": "Rattus norvegicus", "protocol": "as §1, §2"}, "[14]": {"conditions": "sodium salt formulation; cited from earlier work"}, "[15]": {"test_system": "JH1", "assay": "Clonogenic assay, camptothecin", "format": "cell-based", "conditions": "Homo sapiens; for IC100: read-out: concentration for total cell kill", "source_text": "as §1\nCell culture of freshly biopsied gliomas. Biopsy samples were obtained from the operating room and transported in sterile specimen containers. Specimens were filtered through a 230 μm mesh collector screen (Bellco Glass, Inc., Vineland, N.J.) with use of a glass pestle. The specimen was then centrifuged at 1000 rpm for 10 minutes. The supernatant fraction was discarded and the cell pellet was resuspended in a 1 ml of minimum essential medium (Gibco BRL, Grand Island, N.Y.) with 10% fetal bovine serum, 0.5% L-glutamine, penicillin (base; 80.5 units/ml), and streptomycin (80.5 μg/ml). The suspension was passed through a 25 gauge needle, after which it was recentrifuged at 1000 rpm for 5 minutes. The supernatant fraction was discarded and the pellet was resuspended in 5 ml of medium. This suspension was plated onto T75 culture flasks at various dilutions and incubated at 37° C. The medium was changed approximately every 3 days. When the initial culture reached confluence, the cells were trypsinized and passaged. Sensitivity was assessed by the clonogenic assay below, beginning with the second passage.\nas §2"}, "[16]": {"test_system": "F98, 9L, U87, U373, JH1 cell lines", "assay": "In vitro efficacy of camptothecin on several cell lines (clonogenic assay)", "format": "cell-based", "conditions": "168 h; rat and established human cell lines, continuous exposure; read-out: LD90 after continuous exposure", "source_text": "as §1\nCell culture of freshly biopsied gliomas. Biopsy samples were obtained from the operating room and transported in sterile specimen containers. Specimens were filtered through a 230 μm mesh collector screen (Bellco Glass, Inc., Vineland, N.J.) with use of a glass pestle. The specimen was then centrifuged at 1000 rpm for 10 minutes. The supernatant fraction was discarded and the cell pellet was resuspended in a 1 ml of minimum essential medium (Gibco BRL, Grand Island, N.Y.) with 10% fetal bovine serum, 0.5% L-glutamine, penicillin (base; 80.5 units/ml), and streptomycin (80.5 μg/ml). […] Sensitivity was assessed by the clonogenic assay below, beginning with the second passage.\nClonogenic assay. […] Colonies containing more than 50 cells were identified and counted. […] Survival was calculated as the number of colonies formed by the treated cells relative to the number of colonies formed by the untreated cells."}, "[17]": {"conditions": "1 h, read-out: LD90 1 Hour Exposure"}, "[18]": {"conditions": "168 h, continuous exposure, 7 days, read-out: LD90 Continuous Exposure"}}, "note": "Where “and” joins values, the source holds several entries; their conditions need not be identical. Equal entries are not always repeated. Where two headings read alike, the source gives them in different places.", "data": [{"smiles": "COc1cccc2c1C(=O)c1c(O)c3c(c(O)c1C2=O)C[C@@](O)(C(=O)CO)C[C@@H]3O[C@H]1C[C@H](N)[C@H](O)[C@H](C)O1", "note": "[Adriamycin]", "values": [{"measurement": "cardiac toxicity", "setting": "[1]", "value": "significant dose related cardiac toxicity"}, {"measurement": "sensitivity of gliomas", "setting": "[2]", "value": "highly sensitive"}]}, {"smiles": "O=NN(CCCl)C(=O)NCCCl", "note": "[BCNU, 1,3-bis(2-chloroethyl)-1-nitrosourea]", "values": [{"measurement": "radius from implant within which BCNU is detectable", "setting": "[3]; 21 days after implantation", "value": "≤ 3", "unit": "mm"}, {"measurement": "radius from implant within which BCNU is detectable", "setting": "[3]; Day 7", "value": "≤ 40", "unit": "mm"}, {"measurement": "concentration", "setting": "[3]; PCPP-SA (20:80), initially, read-out: average concentration in brain", "value": 8000, "unit": "µM"}, {"measurement": "amount of brain exposed to BCNU", "setting": "[3]; over time", "value": "decrease after three days"}, {"measurement": "% increase survival", "setting": "[4]", "value": "634% and 437%"}, {"measurement": "Median survival in days, Rx group", "setting": "[4]", "value": "80 and 62.3"}]}, {"smiles": "N.N.O=C([O-])C1(C(=O)[O-])CCC1.[Pt+2]", "note": "[Carboplatin]", "values": [{"measurement": "% increase survival", "setting": "[5]; Rx day 5", "value": 225, "unit": "%"}, {"measurement": "Median survival in days, Rx group", "setting": "[5]; Rx day 5, 1 × 10^5 cells injected, controls 16, n = 18", "value": 52, "unit": "days"}]}, {"smiles": "CC[C@@]1(O)C(=O)OCc2c1cc1n(c2=O)Cc2cc3ccccc3nc2-1", "note": "[camptothecin, 4-ethyl-4-hydroxy-1H-pyrano[3',4':6,7]indolizino[1,2-b] quinoline-3,14(4H,12H)-dione]", "values": [{"measurement": "cytotoxic anti-tumor activity", "setting": "[6]", "value": "strong cytotoxic anti-tumor activity"}, {"measurement": "inhibition of topoisomerase I", "setting": "[7]", "value": "irreversibly inhibiting"}, {"measurement": "systemic toxicity", "setting": "[8]", "value": "unexpectedly severe systemic toxicity"}, {"measurement": "tumoral responses", "setting": "[8]", "value": "poor tumoral responses"}, {"measurement": "cytotoxic anti-tumor activity", "setting": "[9]", "value": "strong cytotoxic anti-tumor activity"}, {"measurement": "IC90", "setting": "[10]; 1 hour exposure, 60 min, read-out: LD90 1 Hour Exposure", "value": 1400, "unit": "nM"}, {"measurement": "IC90", "setting": "[10]; Homo sapiens, U-87 MG, 1 h, 1 hour exposure, read-out: LD90 1 Hour Exposure", "value": 1200, "unit": "nM"}, {"measurement": "IC90", "setting": "[10]; Homo sapiens, U-87 MG, 168 h, continuous exposure, 7 days, read-out: LD90 Continuous Exposure", "value": 100, "unit": "nM"}, {"measurement": "IC90", "setting": "[11]; [17]", "value": 300, "unit": "nM"}, {"measurement": "IC90", "setting": "[11]; [18]", "value": 26, "unit": "nM"}, {"measurement": "IC90", "setting": "[12]; F98, 1 h, read-out: LD90 1 Hour Exposure", "value": 1400, "unit": "nM"}, {"measurement": "IC90", "setting": "[12]; F98, 168 h, continuous exposure, 7 days, read-out: LD90 Continuous Exposure", "value": 100, "unit": "nM"}, {"measurement": "IC90", "setting": "[13]; [17]", "value": 1400, "unit": "nM"}, {"measurement": "IC90", "setting": "[13]; [18]", "value": 100, "unit": "nM"}, {"measurement": "protein binding", "setting": "[14]", "value": "strongly protein-bound"}, {"measurement": "IC90", "setting": "[15]; [17]", "value": 100, "unit": "nM"}, {"measurement": "IC90", "setting": "[15]; [18]", "value": 26, "unit": "nM"}, {"measurement": "IC100", "setting": "[15]; 1-hour exposure", "value": 0.14, "unit": "µM"}, {"measurement": "IC100", "setting": "[15]; continuous exposure", "value": 0.03, "unit": "µM"}, {"measurement": "IC90", "setting": "[16]", "value": "≤ 100", "unit": "nM"}]}, {"smiles": "CN(C)c1ccc(O)c2c1C[C@H]1C[C@H]3[C@H](N(C)C)C(O)=C(C(N)=O)C(=O)[C@@]3(O)C(O)=C1C2=O", "note": "[minocycline]", "values": [{"measurement": "% increase survival > no Rx", "setting": "[4]", "value": 330, "unit": "%"}, {"measurement": "% increase survival > ip BCNU", "setting": "[4]; ip", "value": 93, "unit": "%"}]}]}
